From patent US20040142881A1, “Novel immunosuppressive agent” (TOYO SUISAN KAISHA, LTD., priority 2001, published 2004)

Test system: responder cells (T lymphocytes)
Assay: Mixed lymphocytes reaction ([3H]-thymidine uptake of responder cells)
Assay type: cell-based, human
Details: test substance at 2.5, 5, 10, 25 μg/mL (Nos. 1-6) or 5, 10, 25 μg/mL (Nos. 7-12); 4 days culture with mitomycin C-treated stimulator cells; FIGS. 1 and 2
Experimental: Mixed lymphocytes reaction
Lymphocytes serving as stimulator cells and responder cells were prepared from blood taken from individual healthy persons.
The responder cells were further separated from the lymphocyte cells to give T lymphocytes alone.
No treatment was applied to the responder cells. 10^6/mL of the stimulator cells were treated with 10 μg/mL of mitomycin C to stop the cell growth.
Subsequently, the responder cells were inoculated in a 96-well plate, at a rate of 10^5 cells per well, and then test substances (compound Nos. 1 to 12 listed in Table 1 below) were added to a predetermined concentration. The reaction mixture was cultured at 37° C. for one hour. Thereafter, the stimulator cells were added at a rate of 10^5 cells per well. The mixture was cultured in a CO2 incubator at 37° C. for 4 days. After the incubation, the proliferation ability of the responder cells was quantified as follows. First, [^3H]-thymidine was added to the responder cells and incorporated into the nucleus of the cells by culturing the cells for 16 hours. Then, the amount of [^3H]-thymidine uptake into the cells was determined by a scintillation counter.

With `CCCCCCCCCCCCCCCCCC(=O)OCC(CO[C@@H]1O[C@H](CS(=O)(=O)[O-])[C@H](O)[C@H](O)[C@H]1O)OC(=O)CCCCCCCCCCCCCCCCC.[Na+]` (stereo partly drawn) [compound No. 12, 3-0-(6-deoxy-6-sulfo-β-D-galactopyranosyl)-1,2-di-0-stearoyl-glycerol sodium salt] as the compound, how does the “immunosuppressive activity (amount of [3H]-thymidine uptake; the lower the uptake, the higher the activity)” value read?
Its value is “not confirmed”.
